Reference: ChEMBL document CHEMBL6087482, “Discovery of INCB159020, an Orally Bioavailable KRAS G12D Inhibitor” (J Med Chem, 2025)

What was measured:
[1] = target: GTPase KRas (Homo sapiens, UniProt P01116); assay: Binding affinity to KRAS (unknown origin) assessed as dissociation constant by SPR analysis
[2] = Inhibition of ERK phosphorylation in KRAS G12D mutant dependent human HPAF-II cells incubated for 2 hrs with human whole blood containing compound by HTRF assay; format: cell-based
[3] = Inhibition of ERK phosphorylation in KRAS G12D mutant dependent human HPAF-II cells incubated for 2 hrs by HTRF assay; format: cell-based
[4] = Apparent permeability across apical to basolateral side in human Caco-2 cells at 50 uM incubated for 120 mins by LC-MS analysis; format: ADME, cell-based
[5] = target: GTPase KRas (Homo sapiens, UniProt P01116, G12D); assay: Inhibition of bodipy-loaded KRAS G12D mutant (unknown origin) assessed as GDP-GTP exchange preincubated for 4 hrs followed by GppNHp and SOS1 addition and measured after 2 hrs by fluorescence based plate reader analysis
[6] = Intrinsic clearance in human liver microsomes at 1 uM measured upto 30 mins in presence of NADPH by LC/MS analysis; format: ADME, Microsome; settings: read-out: CLH (converted)
[7] = AUC in Sprague-Dawley rat at 3 mg/kg, po or 0.1 mg/kg, iv measured after 24 hrs by LC-MS/MS analysis; format: ADME, organism-based; settings: in vivo
[8] = system: Primates; assay: Clearance in Non human primate assessed as hepatic blood flow at 2.0 mg/kg, po or 1 mg/kg, iv; format: ADME, organism-based; settings: in vivo
[9] = Cmax in Sprague-Dawley rat at 3 mg/kg, po or 0.1 mg/kg, iv measured after 24 hrs by LC-MS/MS analysis; format: ADME, organism-based; settings: in vivo
[10] = Half-life in Non human primate at 2.0 mg/kg, po or 1 mg/kg, iv; format: ADME, organism-based; settings: primates, in vivo
[11] = Half-life in Sprague-Dawley rat at 3 mg/kg, po or 0.1 mg/kg, iv measured after 24 hrs by LC-MS/MS analysis; format: ADME, organism-based; settings: in vivo
[12] = Cmax in Non human primate at 2.0 mg/kg, po or 1 mg/kg, iv; format: ADME, organism-based; settings: primates, in vivo
[13] = Clearance in Sprague-Dawley rat assessed as hepatic blood flow at 3 mg/kg, po or 0.1 mg/kg, iv measured after 24 hrs by LC-MS/MS analysis; format: ADME, organism-based; settings: in vivo
[14] = Oral bioavailability in Non human primate at 2.0 mg/kg; format: ADME, organism-based; settings: primates, in vivo
[15] = Oral bioavailability in Sprague-Dawley rat at 3 mg/kg measured after 24 hrs by LC-MS/MS analysis; format: ADME, organism-based; settings: in vivo
[16] = AUC in Non human primate at 2.0 mg/kg, po or 1 mg/kg, iv; format: ADME, organism-based; settings: primates, in vivo
[17] = Efflux ratio of apparent permeability in human Caco-2 cells at 50 uM incubated for 120 mins by LC-MS analysis; format: ADME, cell-based
[18] = In vivo inhibition of ERK phosphorylation in tumor of mouse xenografted with HPAC cells at 6 mg/kg, po measured after 4 hrs relative to control; format: functional
[19] = system: Primates; assay: Clearance in Non human primate assessed as hepatic blood flow at 2.0 mg/kg, po or 0.5 mg/kg, iv; format: ADME, organism-based; settings: in vivo
[20] = Clearance in Sprague-Dawley rat assessed as hepatic blood flow at 3 mg/kg, po or 1 mg/kg, iv measured after 24 hrs by LC-MS/MS analysis; format: ADME, organism-based; settings: in vivo
[21] = Cmax in Non human primate at 2.0 mg/kg, po or 0.5 mg/kg, iv; format: ADME, organism-based; settings: primates, in vivo
[22] = system: Primates; assay: Clearance in Non human primate at 2.0 mg/kg, po or 0.5 mg/kg, iv; format: ADME, organism-based; settings: in vivo
[23] = Half-life in Sprague-Dawley rat at 3 mg/kg, po or 1 mg/kg, iv measured after 24 hrs by LC-MS/MS analysis; format: ADME, organism-based; settings: in vivo
[24] = Cmax in Sprague-Dawley rat at 3 mg/kg, po or 1 mg/kg, iv measured after 24 hrs by LC-MS/MS analysis; format: ADME, organism-based; settings: in vivo
[25] = system: Primates; assay: AUC in Non human primate at 2.0 mg/kg, po or 0.5 mg/kg, iv; format: ADME, organism-based; settings: in vivo
[26] = AUC in Sprague-Dawley rat at 3 mg/kg, po or 1 mg/kg, iv measured after 24 hrs by LC-MS/MS analysis; format: ADME, organism-based; settings: in vivo
[27] = Half-life in Non human primate at 2.0 mg/kg, po or 0.5 mg/kg, iv; format: ADME, organism-based; settings: primates, in vivo

GTPase KRas (Homo sapiens, UniProt P01116), sequence (P01116 whole entry): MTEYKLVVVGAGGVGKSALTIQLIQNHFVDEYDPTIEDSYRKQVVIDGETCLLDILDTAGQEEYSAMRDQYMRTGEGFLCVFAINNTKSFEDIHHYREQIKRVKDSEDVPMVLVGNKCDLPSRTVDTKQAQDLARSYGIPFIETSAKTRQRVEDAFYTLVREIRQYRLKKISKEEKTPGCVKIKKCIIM

Structure (SMILES) | Kd [1] [nM] | IC50 [2] [nM] | IC50 [3] [nM] | Papp A→B at 2 h, 50 µM [4] [×10⁻⁶ cm/s] | IC50 [5] [nM] | hepatic clearance at 1 µM [6] [mL/min/kg] | also measured
N#CCCc1cc2c(nc(OC[C@@]34CCCN3C[C@H](F)C4)c3cc(CCC(=O)N4CCC4)n([C@@H]4[C@H]5CN[C@@H]4C5)c32)c(F)c1-c1cccc2ccc(F)cc12 | 0.24 | 1100 | 62 | – | – | – | –
Cc1cc(-c2nc3c(F)c(-c4cccc5ccc(F)cc45)c(CCC#N)cc3c3c2cc([C@@H](C)N2CCOCC2=O)n3[C@H]2[C@H]3CN[C@@H]2C3)ccn1 | 0.94 | 103 | 7.5 | 0.6 | 2.1 | > 18.3 | –
CN(C)C(=O)CCc1nc2c(N3CC(N(C)C)C3)nc3c(F)c(-c4cc(O)cc5ccccc45)c(CCC#N)cc3c2n1[C@H]1[C@H]2CN[C@@H]1C2 | 0.02 | 977 | 127 | – | 2.9 | – | –
CN(C)C(=O)CCc1cc2c(N3CC(C)(N(C)C)C3)nc3c(F)c(-c4cc(O)cc5ccccc45)c(CCC#N)cc3c2n1[C@H]1[C@H]2CN[C@@H]1C2 | 0.04 | 1130 | 104 | – | 3 | – | –
CN(C)C1CN(c2nc3c(F)c(-c4cc(O)cc5ccccc45)c(Cl)cc3c3c2ncn3[C@H]2[C@H]3CN[C@@H]2C3)C1 | – | – | – | – | 671 | – | –
CCOc1nc2c(F)c(-c3cccc4ccc(F)cc34)c(CCC#N)cc2c2c1cc(CCC(=O)N(C)C)n2[C@H]1[C@H]2CN[C@@H]1C2 | – | – | – | – | 391 | 11.7 | –
CC(Oc1nc2c(F)c(-c3cc(O)cc4ccccc34)c(CCC#N)cc2c2c1cc(CCC(=O)N(C)C)n2[C@H]1[C@H]2CN[C@@H]1C2)C1CCCN1C (single isomer, unassigned) | 0.1 | 2620 | 54 | – | 3.6 | – | –
Cc1cnc(-c2nc3c(F)c(-c4cccc5ccc(F)cc45)c(CCC#N)cc3c3c2cc([C@@H](C)N2CCOCC2=O)n3[C@H]2[C@H]3CN[C@@H]2C3)cn1 | 1.5 | 55 | 6.8 | 1.4 | 2.8 | > 18.3 | AUC at 24 h [7]: 0.085 µM·h; QH [8]: 39%; Cmax [9]: 24 nM; half-life [10]: 4.9 h; half-life [11]: 2.5 h; Cmax [12]: 7.2 nM; QH [13]: > 100%; bioavailability [14]: 2%; bioavailability [15]: 20%; AUC [16]: 0.068 µM·h
CN(C)C1CN(c2nc(N3CC4CCC(C3)N4)c3cc(Cl)c(-c4cc(O)cc5ccccc45)c(F)c3n2)C1 | – | – | – | – | 704 | – | –
N#CCCc1cc2c(nc(-c3ccncn3)c3cc(CN4CCOCC4=O)n([C@H]4[C@H]5CN[C@@H]4C5)c32)c(F)c1-c1cccc2ccc(F)cc12 | – | 626 | 17 | 1.1 | 3.8 | 11.7 | efflux ratio at 2 h, 50 µM [17]: 20
CCOc1nc2c(F)c(-c3cc(O)cc4ccccc34)c(CCC#N)cc2c2c1cc(CN1CCCCC1=O)n2[C@H]1[C@H]2CN[C@@H]1C2 | 0.05 | 2350 | 21 | 0.2 | 2.6 | > 18.3 | –
CC(=O)Nc1cccc(-n2c(=O)n(C3CC3)c(=O)c3c(Nc4ccc(I)cc4F)n(C)c(=O)c(C)c32)c1 [TRAMETINIB] | – | – | – | – | – | – | inhibition in vivo at 6 mg/kg [18]: 99%
N#CCCc1cc2c(nc(-n3cncn3)c3cc(CN4CCOCC4=O)n([C@H]4[C@H]5CN[C@@H]4C5)c32)c(F)c1-c1cccc2ccc(F)cc12 | 0.84 | 519 | 10 | 1.7 | 3.7 | > 18.3 | –
CCOc1nc2c(F)c(-c3cc(O)cc4ccccc34)c(CCC#N)cc2c2c1cc(CCC(=O)N(C)C)n2[C@H]1[C@H]2CN[C@@H]1C2 | 0.26 | 492 | 28 | 0.2 | 3.8 | > 18.3 | –
CC(Oc1nc2c(F)c(-c3cc(O)cc4ccccc34)c(CCC#N)cc2c2c1nc(CCC(=O)N(C)C)n2[C@H]1[C@H]2CN[C@@H]1C2)C1CCCN1C (single isomer, unassigned) | – | – | 1240 | – | 15 | – | –
CN(C)C1CN(c2nc(N3CCNCC3)c3cc(Cl)c(-c4cc(O)cc5ccccc45)c(F)c3n2)C1 | – | – | – | – | 8000 | – | –
Cc1cc2c(nc(N3CC(N(C)C)C3)c3nc(CCC(=O)N(C)C)n([C@H]4[C@H]5CN[C@@H]4C5)c32)c(F)c1-c1cc(O)cc2ccccc12 | 3 | – | 1300 | – | 12 | – | –
Cc1nc2c(F)c(-c3cccc4ccc(F)cc34)c(CCC#N)cc2c2c1cc(CN1CCOCC1=O)n2[C@H]1[C@H]2CN[C@@H]1C2 | – | 677 | 7.2 | 0.7 | 2.7 | > 18.3 | –
CN(C)C(=O)CCc1nc2c(N3CC(C)(N(C)C)C3)nc3c(F)c(-c4cc(O)cc5ccccc45)c(CCC#N)cc3c2n1[C@H]1[C@H]2CN[C@@H]1C2 | 0.031 | 1240 | 92 | – | 2.9 | – | –
Cc1nc2c(F)c(-c3cccc4ccc(F)cc34)c(CCC#N)cc2c2c1cc(CN1CCCCC1=O)n2[C@H]1[C@H]2CN[C@@H]1C2 | – | 1030 | 39 | 0.7 | 6.1 | > 18.3 | –
CN(C)C(=O)CCc1cc2c(OC[C@@]34CCCN3C[C@H](F)C4)nc3c(F)c(-c4cc(O)cc5ccccc45)c(CCC#N)cc3c2n1[C@H]1[C@H]2CN[C@@H]1C2 | < 0.001 | 410 | 20 | < 0.1 | 2.1 | > 18.3 | –
Cc1cc(-c2nc3c(F)c(-c4cccc5ccc(F)cc45)c(CCC#N)cc3c3c2cc(CN2CCOCC2=O)n3[C@H]2[C@H]3CN[C@@H]2C3)ccn1 | 1.2 | 565 | 36 | 1.6 | 6.9 | 16.7 | QH [19]: 37%; QH [20]: > 100%; Cmax [21]: 2.5 nM; CL [22]: 16.2 mL/min/kg; half-life [23]: 3.5 h; bioavailability [14]: 0%; Cmax [24]: 41.5 nM; AUC [25]: Below_limit_of_detection; bioavailability [15]: 11%; AUC at 24 h [26]: 0.108 µM·h; half-life [27]: 8.4 h
Cc1nc2c(F)c(-c3cc(O)cc4ccccc34)c(CCC#N)cc2c2c1cc(CN1CCCCC1=O)n2[C@H]1[C@H]2CN[C@@H]1C2 | – | 597 | 45 | – | 3.5 | – | –
